Measurements: patent US9018165B2, “Process for the synchronization of ovulation for timed breeding without heat detection” (priority 2003, dated 2015)

How the values were obtained:
mature postpartum sows = experiment: Intravulvar injection at estrus detection with AI in mature postpartum sows (Example 2); format: in vivo, swine; settings: 50 mcg intravulvar at first estrus detection
Experimental: Sows were assigned randomly in blocks of two to either control or to be injected intravulvar with 50 mcg of deslorelin in SAIB at the time of estrus detection for sows first detected in estrus in the a.m. and 12 hours later for those first detected in estrus in the p.m. Treated animals were bred AI upon detected estrus and again 24 hours later if still in estrus. Controls received a saline injection on first detected estrus behavior estrus detection and were bred according to the farm's normal procedures.

postpartum sows = experiment: Timed injection 96 hours post-weaning and single timed insemination without estrus detection (Example 3); format: in vivo, swine; settings: 50 mcg in SAIB 96 hours post-weaning; single insemination 28+/-2 hours later
Experimental: Approximately 170 postpartum sows were randomly divided into two equal groups comprised of controls and treated. Following weaning, the controls were detected for estrus and bred following the normal standard operating procedures for the farms on which they resided. The treated sows received a 50 mcg dose of deslorelin in SAIB at 96 hours post-weaning and were bred with a single insemination 28+/−2 hours later with no regard to estrus detection. The sows were examined for pregnancy by ultrasound at 21 days and slaughtered around 28 days post breeding. The entire reproductive tract was removed and corpora lutea and embryos were counted.

SMILES: CCNC(=O)[C@@H]1CCCN1C(=O)[C@H](CCCN=C(N)N)NC(=O)[C@H](CC(C)C)NC(=O)[C@@H](Cc1c[nH]c2ccccc12)NC(=O)[C@H](Cc1ccc(O)cc1)NC(=O)[C@H](CO)NC(=O)[C@H](Cc1c[nH]c2ccccc12)NC(=O)[C@H](Cc1cnc[nH]1)NC(=O)[C@@H]1CCC(=O)N1 [Deslorelin, deslorelin]
- difference in pregnancy rates, Control versus Treated (in words) (mature postpartum sows): no significant difference
- Embryo Survival (postpartum sows): 64%
